One series deals with Botrytis cinerea. Kind of series: Preventive effect against cucumber gray mold (mycelium inoculation). The series is classed as in vivo. Particulars: 48 h, test solution A 500 ppm, 2 days. The procedure:
Compounds of the present invention were dissolved in a solvent for emulsion (a mixture of Sorpol (registered trademark) 3005XL (manufactured by Toho Chemical Industry Co., Ltd.): N-methylpyrrolidone:Solvesso (registered trademark) 200 (manufactured by ExxonMobil Chemical) in a ratio of 1:5:2) to prepare 20% emulsifiable concentrates. Then, distilled water was added to dilute the emulsifiable concentrates to the predetermined concentration (500 ppm), and the obtained solutions were used in the following Test Examples 1 to 7. Cucumber (cultivar: Sagami Hanjiro) was planted in 90 cm^3 plastic pots, and in the seed leaf stage, 5 ml per pot of test solutions A of the compounds of the present invention were applied. On the next day, the pots were put in a plastic container, and agar blocks (diameter: 5 mm) containing Botrytis cinerea preliminarily cultivated in a PDA medium were inoculated to the seed leaves of the cucumber treated with the solutions. After the inoculation, the plastic container was covered with a plastic sheet and humidified, and placed at 20° C. for 2 days, whereupon the proportion of the formed lesion in the inoculated leaves was measured to calculate the control value in accordance with the same formula as in Test Example 1. Here, the test was carried out in duplicate.

For the next series, the system named is Puccinia recondita. Put plainly: Preventive effect against wheat brown leaf rust. Particulars: 216 h, test solution A 500 ppm, 1 + 8 days. It counts as in vivo. As to the method:
(§1) Compounds of the present invention were dissolved in a solvent for emulsion (a mixture of Sorpol (registered trademark) 3005XL (manufactured by Toho Chemical Industry Co., Ltd.): N-methylpyrrolidone:Solvesso (registered trademark) 200 (manufactured by ExxonMobil Chemical) in a ratio of 1:5:2) to prepare 20% emulsifiable concentrates. Then, distilled water was added to dilute the emulsifiable concentrates to the predetermined concentration (500 ppm), and the obtained solutions were used in the following Test Examples 1 to 7. To wheat (cultivar: Norin-61-go) in 1.3-leaf stage planted in 90 cm^3 plastic pots, 5 ml per pot of test solutions A of the compounds of the present invention were applied. On the next day, a suspension of spore of Puccinia recondita was spray-inoculated to the wheat, and the pots were placed in an inoculation chamber at 20° C. under a humidity of 100% for 1 day. Then, the pots were placed in an air-conditioned greenhouse (20° C.) for 8 days. The proportion of the formed lesion in the inoculated leaves was measured to calculate the control value in accordance with the same formula as in Test Example 1. Here, the test was carried out in duplicate.

In series [1] the test system is Phaeosphaeria nodorum (synonym: Septoria nodorum). Put plainly: Preventive effect against wheat glume blotch. It counts as in vivo. Particulars: Parastagonospora nodorum, 192 h, test solution A 500 ppm, 2 + 6 days. As to the method:
as §1, with “Haruyutaka)” for “Norin-61-go)”, “conidium” for “spore”, “Phaeosphaeria nodorum synonym: Septoria nodorum)” for “Puccinia recondita”, “2 days.” for “1 day.”, “6” for “8”

The subject of the next series is Meloidogyne incognita. Put plainly: Preventive effect on Meloidogyne incognita (garden balsam seedlings, root knot). Particulars: 504 h, test solution B 100 ppm, 1 ml per seedling, 3 weeks, read-out: efficacy (damage degree, root knot, relative to non-treated plot). The series is classed as in vivo. As to the method: Compounds of the present invention were dissolved in dimethylsulfoxide to prepare 1% solutions. Then, distilled water was added to dilute the solutions to the predetermined concentration (100 ppm), and the obtained solutions were used in the following Test Examples 8 to 12. 1 ml per seedling of test solutions B of the compounds of the present invention were treated to the bases of garden balsam seedlings (about 2 weeks after budding) planted in a cell tray of which each cell was filled with 10 g of soil. 1 Hour after the application, 1 ml per cell of water containing Meloidogyne incognita 2 L larvae (100 2 L larvae/1 ml) was applied to the bases. The tray was placed in a greenhouse for 3 weeks, and the root knot level formed on the root was determined in accordance with the following damage index and the damage degree to calculate the efficacy (%) relative to the non-treated plot in accordance with the following formula. <Damage Index> 0: No knot observed. 1: Knot observed on a part of the root system. 2: Knot observed on the entire root system. 3: Large knot observed. 4: Large knot observed on the entire root system. [Damage degree]=[Σ(damage index×number of seedlings at each index)/(4×number of seedlings investigated)]×100 Efficacy(%)=[1−(damage degree in treated plot/damage degree in non-treated plot)]×100

In the case of `CON=C(CNC(=O)c1ccccc1C(F)(F)F)c1ncc(OC)cc1Cl` [2-083, N-[2-(3-chloro-5-methoxypyridin-2-yl)-2-(methoxyimino)ethyl]-2-(trifluoromethyl)benzamide], in the series on Botrytis cinerea, the pest or weed control at 500 µg/mL was no less than 70%.

Consider `CCC(C)O/N=C(/CNC(=O)c1ccccc1C(F)(F)F)c1ncc(Cl)cc1Cl` (stereo not shown) [2-136, (Z)—N-[2-(3,5-dichloropyridin-2-yl)-2-(sec-butoxyimino)ethyl]-2-(trifluoromethyl)benzamide], for which the melting point (commonly the temperature of the solid-liquid transition) lay in the range of 68 to 70 °C. The pest or weed control at 500 µg/mL in the series on Puccinia recondita was no less than 70%.

`CC(C)(C)ON=C(CNC(=O)c1ccccc1C(F)(F)F)c1ncc(Cl)cc1Cl` [2-139, N-[2-(3,5-dichloropyridin-2-yl)-2-(tert-butoxyimino)ethyl]-2-(trifluoromethyl)benzamide]: the pest or weed control at 500 µg/mL in series [1] was no less than 70%.

Compound `O=C(NC/C(=N/OCC(F)(F)F)c1ncc(Cl)cc1Cl)c1ccccc1C(F)(F)F` [2-212, (Z)—N-[2-(3,5-dichloropyridin-2-yl)-2-(2,2,2-trifluoroethoxyimino)ethyl]-2-(trifluoromethyl)benzamide] yielded a melting point of 100 to 102 °C. The pest or weed control at 100 µg/mL with Meloidogyne incognita is no less than 50%.

As for `CON=C(CN(C(=O)c1ccccc1C(F)(F)F)C1CC1)c1ncc(Cl)cc1Cl` [4-007], the melting point was 75 to 77 °C.

Compound `CO/N=C(\CNC(=O)c1ccccc1C(F)(F)F)c1ccc(Cl)cc1Cl` [Compound No. 1-004, (Z)—N-[2-(2,4-dichlorophenyl)-2-(methoxyimino)ethyl]-2-(trifluoromethyl)benzamide] came in with a melting point of 146 to 148 °C.

For the compound `CC(C)ON=C(CNC(=O)c1ccccc1C(F)(F)F)c1ncc(Cl)cc1Cl` [Compound No. 2-005, N-[2-(3,5-dichloropyridin-2-yl)-2-(isopropoxyimino)ethyl]-2-(trifluoromethyl)benzamide], the pest or weed control at 500 µg/mL with Puccinia recondita was no less than 70%.

As for `CCC(C)ON=C(CNC(=O)c1ccccc1C(F)(F)F)c1ncc(Cl)cc1Cl` (stereo not shown) [Compound No. 2-009, N-[2-(3,5-dichloropyridin-2-yl)-2-(sec-butoxyimino)ethyl]-2-(trifluoromethyl)benzamide], the pest or weed control at 100 µg/mL in the series with Meloidogyne incognita was no less than 50%.

The compound `CC(C)O/N=C(\CNC(=O)c1ccccc1C(F)(F)F)c1ncc(C(F)(F)F)cc1Cl` [Compound No. 2-019, (E)-N-[2-[3-chloro-5-(trifluoromethyl)pyridin-2-yl]-2-(isopropoxyimino)ethyl]-2-(trifluoromethyl)benzamide] returned a melting point of 81 to 83 °C.

As for `O=C(NC/C(=N\OCC1CC1)c1ncc(C(F)(F)F)cc1Cl)c1ccccc1C(F)(F)F` [Compound No. 2-023, (E)-N-[2-[3-chloro-5-(trifluoromethyl)pyridin-2-yl]-2-(cyclopropylmethoxyimino)ethyl]-2-(trifluoromethyl)benzamide], the melting point was in the range of 98 to 101 °C.

Take `O=C(NC/C(=N/OCC1CC1)c1ncc(C(F)(F)F)cc1Cl)c1ccccc1C(F)(F)F` [Compound No. 2-024, (Z)—N-[2-[3-chloro-5-(trifluoromethyl)pyridin-2-yl]-2-(cyclopropylmethoxyimino)ethyl]-2-(trifluoromethyl)benzamide]: the melting point fell in the range of 73 to 74 °C. Besides, the pest or weed control at 100 µg/mL in the series with Meloidogyne incognita is no less than 50%.

In turn, `CC(C)O/N=C(/CNC(=O)c1ccccc1C(F)(F)F)c1ncc(Cl)cc1Cl` [Compound No. 2-128, (Z)—N-[2-(3,5-dichloropyridin-2-yl)-2-(isopropoxyimino)ethyl]-2-(trifluoromethyl)benzamide] showed a melting point of 107 to 108 °C. In addition, the pest or weed control at 100 µg/mL in the series on Meloidogyne incognita is no less than 50%.

On to `CC(C)O/N=C(\c1ncc(Cl)cc1Cl)[C@H](C)NC(=O)c1ccccc1C(F)(F)F` [Compound No. 2-132, (S)—N-[2-(3,5-dichloropyridin-2-yl)-2-(Z)-(isopropoxyimino)-1-methylethyl]-2-(trifluoromethyl)benzamide], for which the pest or weed control at 500 µg/mL in series [1] is no less than 70%.

Turning to `CC(ON=C(CNC(=O)c1ccccc1C(F)(F)F)c1ncc(Cl)cc1Cl)c1ccc(F)cc1` (stereo not shown) [Compound No. 2-173, N-[2-(3,5-dichloropyridin-2-yl)-2-[1-(4-fluorophenyl)ethoxyimino]ethyl]-2-(trifluoromethyl)benzamide], the pest or weed control at 100 µg/mL with Meloidogyne incognita is no less than 50%.

Take `CC(C)ON=C(CNC(=O)c1ccccc1C(F)(F)F)c1ncc(Br)cc1Cl` [Compound No. 2-181, N-[2-(5-bromo-3-chloropyridin-2-yl)-2-(isopropoxyimino)ethyl]-2-(trifluoromethyl)benzamide]: in the series with Meloidogyne incognita, the pest or weed control at 100 µg/mL is no less than 50%. In series [1], the pest or weed control at 500 µg/mL is no less than 70%.

In turn, `CCO/N=C(/CNC(=O)c1ccccc1C(F)(F)F)c1ncc(C(F)(F)F)cc1Cl` [Compound No. 2-185, (Z)—N-[2-[3-chloro-5-(trifluoromethyl)pyridin-2-yl]-2-(ethoxyimino)ethyl]-2-(trifluoromethyl)benzamide] showed a melting point of 60 to 62 °C.

Regarding `CO/N=C(/CNC(=O)c1ccccc1C(F)(F)F)c1ncc(Br)cc1Cl` [Compound No. 2-216, (Z)—N-[2-(5-bromo-3-chloropyridin-2-yl)-2-(methoxyimino)ethyl]-2-(trifluoromethyl)benzamide], the melting point was in the range of 85 to 86 °C. The pest or weed control at 100 µg/mL in the series on Meloidogyne incognita was no less than 50%. Moreover, the pest or weed control at 500 µg/mL in series [1] is no less than 70%.

The compound `CON=C(CNC(=O)c1ccccc1C(F)(F)F)c1ncc(OCC(F)(F)F)cc1Cl` [Compound No. 2-223, N-[2-[3-chloro-5-(2,2,2-trifluoroethoxy)pyridin-2-yl]-2-(methoxyimino)ethyl]-2-(trifluoromethyl)benzamide] displayed a pest or weed control at 500 µg/mL in the series on Botrytis cinerea of no less than 70%.

`CC(C)O/N=C(\CNC(=O)c1ccccc1C(F)(F)F)c1ncc(Cl)cc1Cl` [Compound No. 2-239, (E)-N-[2-(3,5-dichloropyridin-2-yl)-2-(isopropoxyimino)ethyl]-2-(trifluoromethyl)benzamide] gave a melting point of 54 to 57 °C.

For the compound `CC(C)ON=C(CNC(=O)c1ccccc1C(F)(F)F)c1ncc(C#CC(C)(C)C)cc1Cl` [Compound No. 2-248, N-[2-[3-chloro-5-(3,3-dimethyl-1-butynyl)pyridin-2-yl]-2-(isopropoxyimino)ethyl]-2-(trifluoromethyl)benzamide], the pest or weed control at 500 µg/mL with Puccinia recondita is no less than 70%.

As to `CCON=C(CNC(=O)c1cn(C)nc1C(F)F)c1ncc(Cl)cc1Cl` [Compound No. 17-004, N-[2-(3,5-dichloropyridin-2-yl)-2-(ethoxyimino)ethyl]-3-difluoromethyl-1-methyl-1H-pyrazole-4-carboxamide], the pest or weed control at 500 µg/mL in series [1] is no less than 70%.

The values are drawn from US9434684B2, “Oxime-substituted amide compound and pest control agent” (Nissan Chemical Industries, Ltd., priority 2012, dated 2016).
